Tests used:
[1] = in cyclohexane; cited from earlier work
[2] = Superoxide trapping: reaction of nitrone with potassium superoxide and crown ether in benzene; conditions: for trapping of superoxide radical anion: in vitro, yielding UV-VIS identifiable orange products; for colour change / coloured product upon reaction with potassium superoxide: potassium superoxide (3 or 6 equiv.)
Excerpt: Thus, the amounts of potassium superoxide and crown ether were increased to 5 equivalents. Still no product was observed. The result could be due to the fact that not enough superoxide radical anion was present because of poor solubility of potassium superoxide. Therefore, 20 equivalents of potassium superoxide and crown ether were directly treated with nitrone 22. These conditions gave a product in very low yield which was impossible to identify. Finally, nitrone 22 was directly treated using 6 equivalents of potassium superoxide. […] The product was identified as aldehyde 67 by observing the aldehyde-proton signal and the up-field shifting of the ethyl signal of the azulene ring.
The detection of superoxide with azulenysilane mononitrone 23 was based on the previous method as described (vida supra). Six equivalents of potassium superoxide were used as before. As mentioned earlier, the previous reaction was monitored by observing an orange product on TLC. […] Based on the previous mechanism, it was expected to obtain the end product bis-aldehyde 72. However, ^1H NMR spectral information of the orange end product indicated the loss of the silyl group, and presence of only the mono-aldehyde. The low resolution mass spectrum detected a MH^+ of 448. Unfortunately, it was not possible to purify enough for the NMR characterization. […] It is believed that the superoxide spin adduct that formed was unstable and fragmented into another compound rather than the expected one. The loss of the silyl group could result after rearrangement via a nucleophilic attack on silicon by a second superoxide anion since an excess of superoxide anion was used and due to the high affinity of silicon towards oxygen.
The unidentified end product from superoxide radical anion with nitrone 23 led us to synthesize an analogue, the isoxazoline azulenylsilanenitrone 24, and test it for its possible utility in superoxide detection. Using the same method as described earlier, superoxide was solubilized in benzene by employing in acrown ether. The only difference in this case was the use of three equivalents of potassium superoxide instead of six equivalents. […] As in the previous case, aldehyde product 73 was expected to be formed. […] With HRMS and NMR spectral analyses, the orange product was identified as amide 74.
Guanylhydrazone nitrone 25 is a congener of nitrone 24. Incorporation of guanylhydrazone moiety may make it mitochondriotropic, and thereby render it useful to detect superoxide anion present in the mitochondria. […] The brownish orange end product was isolated and identified as amide 80 using low resolution mass spectrum (MH^+=654) which is analogous to the end product 74. In addition to amide 80, a trace of another orange product was also observed which is identified as amide 81 (MH^+=768) analogous to amide 79.
6 mg of nitrone 22 (0.0163 mmol) was mixed with 6.9 mg of potassium superoxide (0.097 mmol, 6 equiv.) and 8.6 mg of crown ether (0.032 mmol, 2 equiv.) and dissolved the mixture in 1 ml of benzene. The reaction was stirred for 3 hr at room temperature. The product was washed with 10 ml of saturated sodium chloride several times, dried over magnesium sulfate and concentrated. The mixture was purified by column chromatography using 5:5 hexane:ethylacetate to give 2.2 mg of crude 67 (43%). It was not possible to obtain 67 pure enough for definitive NMR characterization. […] When the same reaction was stirred for three days, another orange product was observed. […] Impossible to isolate this product in pure form, the structure was not identified.
20 mg of nitrone 24 was treated with 7.5 mg of potassium superoxide and 18.6 mg of crown ether in 1 ml of benzene. The reaction was stirred for 16 hr at room temperature. The mixture was then washed with 10 ml of saturated sodium chloride several times, dried and concentrated. […]

[3] = assay type: physicochemical
Procedure: Solutol HS 15 is a non-ionic solubilizer and emulsifying agent produced from 1 mole of 12-hydroxystearic acids and 15 moles of ethylene oxide. […] To prepare the concentration of 0.64 mg/ml of nitrone 25 in 3:7 solutol HS 15:1% saline solution, 1 ml of solutol HS 15 was heated until it turned into a clear liquid and cooled to room temperature. Meanwhile, 2.1 mg of nitrone 25 was crushed to a fine powder and dissolved in 1 ml of clear solutol HS 15. It was then diluted with 2.3 ml of 1% saline solution in water with frequent shaking and warming. It was then cool to room temperature to obtained green solution. The green solution was kept in a freezer, and found to be stable. The aqueous formulation of nitrone 25 with solutol HS 15 is believed to be amenable for mitochondrial superoxide detection and other biological studies.

[4] = Fluorescence and quantum yield of superoxide trapping product in ethanol; assay type: physicochemical; conditions: excitation wavelength 390 nm
Procedure: The UV-vis (ultra visible) absorption spectrum and fluorescence of chromotropic amide 74 was measured in ethanol. […] The fluorescence signal, indicated by red signal, was obtained by irradiating at the excitation wavelength 390 nm as shown in the spectrum. The wavelength dependence of the intensity of emitted light has been recorded at ˜490 nm (emission). The quantum yield of amide was measured at 2.7%. […] This, in addition to its chromotropic behavior, may bring an advantage over conventional cyclic nitrones which require ESR for superoxide detection.
All of the moisture sensitive reactions have been carried out using syringe septum rubber cap technique under N2 or Ar atmosphere or in a vial by flushing N2 or Ar gas into it. […] All of the reactions were monitored by TLC analysis (Whatman pre-coated silica gel F254 plates, 250 μm layer thickness), and visualization was achieved by 254 nm UV light. The crude reaction mixtures have been purified by column chromatography using 60 A (200-300 mess) on silica gel. ^1H and ^13C NMR spectra were recorded on Bruker AVANCE-400 spectrometer in CDCl3. Chemical shifts were measured in parts per million with residual solvent peak used as an internal standard. ^1H NMR spectra were run at 400 MHz and ^13C NMR spectra were recorder at […] with proton decoupled sequence. […] UV-vis spectrum was recorded using a Varian Cary 50 Bio spectrophotometer. […]

[5] = crown ether, benzene, room temperature

C(#Cc1c2ccccc2c(C#Cc2ccccc2)c2ccccc12)c1ccccc1 [9,10-bis(phenylethynyl)anthracene]
quantum yield (QY) of fluorescence standard [1]: 1.0

[H]/N=C(\N)N/N=C/c1cccc(C#Cc2cccc(C3=C(C#N)C(c4c5cccccc-5c(/C=[N+](\[O-])C(C)(C)C)c4[Si](C)(C)C(C)(C)C)N(C(C)(C)C)O3)c2)c1 (stereo not shown) [nitrone 25, 2-tert-butyl-3-[2-(tert-butyldimethyl-silanyl)-3-nitrone-azulen-1-yl]-5-[3-(3-guanylhydrazone-phenylethynyl)-phenyl]-2,3-dihydro-isoxazole-4-carbonitrile]
trapping of superoxide radical anion [2]: trap superoxide efficiently | trapping of superoxide radical anion ([2]; listed as 25): trap superoxide radical anion efficiently | concentration in solution [3]: 640 µg/mL | effect of solutol HS 15 on solubility in water [3]: increase the solubility | stability of solution [3]: stable | water solubility [3]: poorly water soluble

CCc1c2cccccc-2c(C=O)c1O[Si](C)(C)C(C)(C)C [aldehyde 67]
stability of aldehyde end product ([2]; under the superoxide reaction conditions, decomposed as reaction proceeded): very unstable

CC(C)(C)/[N+]([O-])=C/c1c2cccccc-2c(C=O)c1[Si](C)(C)C(C)(C)C [nitrone 23, 2-tert-butyldimethylsilyl-3-formyl-azulene-1-nitrone]
trapping of superoxide radical anion [2]: trap superoxide radical anion efficiently | colour change / coloured product upon reaction with potassium superoxide [2, 5]: turned completely from green to orange | time for reaction mixture to turn completely from green to orange ([2]; six equivalents of potassium superoxide, crown ether, benzene): 90 min

CC(C)(C)N1OC(c2ccccc2)=C(C#N)C1c1c2cccccc-2c(/C=[N+](\[O-])C(C)(C)C)c1[Si](C)(C)C(C)(C)C (stereo not shown) [nitrone 24, 2-tert-butyl-3-[2-(tert-butyldimethyl-silanyl)-3-nitrone-azulen-1-yl]-5-phenyl-2,3-dihydro-isoxazole-4-carbonitrile]
trapping of superoxide radical anion [2]: trap superoxide radical anion efficiently | colour change / coloured product upon reaction with potassium superoxide [2, 5]: completely turned into orange solution

CCc1c2cccccc-2c(/C=[N+](\[O-])C(C)(C)C)c1[Si](C)(C)C(C)(C)C [nitrone 22, 2-terbutyldimethylsilyl-1ethyl-3-azulenylnitrone]
trapping of superoxide radical anion [2]: trap superoxide radical anion efficiently | reaction with superoxide ([2]; one to five equivalents of potassium superoxide and one equivalent of crown ether in benzene, room temperature): No reaction was observed | colour change / coloured product upon reaction with potassium superoxide [2, 5]: less polar orange product

CC(C)(C)NC(=O)c1c2cccccc-2c2c(NC(C)(C)C)c(C(=O)c3ccccc3)c(=N)oc12 [amide 74]
fluorescence emission wavelength [4]: ~490 nm | fluorescence quantum yield [4]: 2.7%

Cc1c2cccccc-2c(C)c1[Si](C)(C)C(C)(C)C [nitrone 40, 2-tert-butyldimethylsilyl-1,3-dimethylazulene]
colour change / coloured product upon reaction with potassium superoxide [2, 5]: turned into brownish orange

From US9156862B2, “Silylated azulenyl nitrone spin traps as chromotropic superoxide detectors” (THE FLORDIA INTERNATIONAL UNIVERSITY BOARD OF TRUSTEES, priority 2011, dated 2015)
